From patent US20160297768A1, “NOVEL IMIDAZOLE DERIVATIVES AND THERAPEUTIC USE THEREOF” (INDUSTRY-ACA-DEMIC COORPERATION FOUNDATION, YONSEI …, priority 2013, published 2016)

Columns and labels:
A549 cells = test: Apoptotic activity by MTT analysis, A549 cells; format: cell-based; settings: 15 μM of the compound, mean±standard deviation; for cytotoxicity at 15 µM: Homo sapiens, A549, 12 h, read-out: Apoptosis (%) A549 cells
Procedure: (§1) Lung cancer cells (A549), colorectal cancer cells (HCT116), HeLa cells, liver cancer cells (HepG2), T-cell leukemia cells (Jurkat), myeloid leukemia cells (K562), breast cancer cells (MCF-7 and MDA-MB-231) and myelocytic leukemia cells ([…]) were obtained from the American Type Culture Collection (ATCC), and cultured in 10% fetal bovine serum (FBS), 50 units/mL penicillin and 50 units/mL streptomycin-added RPMI 1640 (Invitrogen). The cells were maintained in a humidified 37° C., 5% CO2 atmosphere. The anticancer activity was detected by MTT analysis. Each type of cancer cells were plated in triplicate in a 96-well microtiter plate, and cultured at 37° C. for 24 hours. The cells were treated with each of the compounds prepared above at 37° C. for 12 hours. After the culturing of the cells, 10 μL of an MTT reagent ((3-[4,5-dimethyl-2-thiazolyl]-2,5-diphenyl-2H-tetrazoliumbromide) was added to each well, and cultured for 3.5 hours. The absorbance of each sample was detected using a UV microplate reader (SpectraMax 340PC 384, Molecular Devices) at 570 nm. The detection results were measured as a mean value. The effect of each compound on apoptosis is shown in Table 1.
(§2) The A549 and HeLa cells were treated with 15 μM of the compound for 12 hours. The apoptosis was detected using MTT (mean±standard deviation).

HeLa cells = test: Apoptotic activity by MTT analysis, HeLa cells; format: cell-based; settings: 15 μM of the compound, mean±standard deviation; for cytotoxicity at 15 µM: Homo sapiens, HeLa, 12 h, read-out: Apoptosis (%) HeLa cells
Procedure: as §1, §2

**Q.** What does the source list for `COC(=O)c1ccc(Cn2c(-c3cc(C(F)(F)F)cc(C(F)(F)F)c3)nc(-c3ccc(OC)cc3)c2-c2ccc(OC)cc2)cc1` [Example 120, Methyl4-((2-(3,5-bis(trifluoromethyl)phenyl)-4,5-bis(4-methoxyphenyl)-1H-imidazole-1-yl)methyl)benzoate]?
**A.** cytotoxicity at 15 µM (A549 cells): 40 ± 0.49%; cytotoxicity at 15 µM (HeLa cells): 53 ± 1.84%

**Q.** `COCCNC(=O)c1ccc(Cn2c(-c3cc(C(F)(F)F)cc(C(F)(F)F)c3)nc(-c3ccc(OC)cc3)c2-c2ccc(OC)cc2)cc1` [Example 121, 4-((2-(3,5-bis(trifluoromethyl)phenyl)-4,5-bis(4-methoxyphenyl)-1H-imidazole-1-yl)methyl)-N-(2-methoxyethyl)benzamide] was tested. Which cytotoxicity at 15 µM (A549 cells) did it give?
**A.** 13 ± 0.38%

**Q.** What about the cytotoxicity at 15 µM (HeLa cells) of the same compound?
**A.** 19 ± 1.06%

**Q.** For `COCCOC(=O)c1ccc(Cn2c(-c3cc(C(F)(F)F)cc(C(F)(F)F)c3)nc(-c3ccc(OC)cc3)c2-c2ccc(OC)cc2)cc1` [Example 122, 2-methoxyethyl 4-((2-(3,5-bis(trifluoromethyl)phenyl)-4,5-bis(4-methoxyphenyl)-1H-imidazole-1-yl)methyl)benzoate], which cytotoxicity at 15 µM (A549 cells) is on record?
**A.** 58 ± 0.28%

**Q.** And the cytotoxicity at 15 µM (HeLa cells)?
**A.** 57 ± 0.77%

**Q.** What does the source list for `NCCOCCOCCNC(=O)c1ccc(Cn2c(-c3cc(C(F)(F)F)cc(C(F)(F)F)c3)nc(-c3ccccc3Cl)c2-c2ccccc2Cl)cc1` [Example 123, N-(2-(2-(2-aminoethoxy)ethoxy)ethyl)-4-((2-(3,5-bis(trifluoromethyl)phenyl)-4,5-bis(2-chlorophenyl)-1H-imidazole-1-yl)methyl)benzamide]?
**A.** cytotoxicity at 15 µM (A549 cells): 11 ± 0.7%; cytotoxicity at 15 µM (HeLa cells): 8 ± 0.76%

**Q.** `NCCOCCOCCNC(=O)c1ccc(Cn2c(-c3ccc(C(F)(F)F)cc3)nc(-c3ccccc3)c2-c2ccccc2)cc1` [Example 128, N-(2-(2-(2-aminoethoxy)ethoxy)ethyl)-4-((4,5-diphenyl-2-(4-(trifluoromethyl)phenyl)-1H-imidazole-1-yl)methyl)benzamide] was tested. Which cytotoxicity at 15 µM (A549 cells) did it give?
**A.** 77 ± 0.76%

**Q.** And the cytotoxicity at 15 µM (HeLa cells)?
**A.** 78 ± 1.61%

**Q.** What does the source list for `N=C(N)c1ccc(Cn2c(-c3cc(C(F)(F)F)cc(C(F)(F)F)c3)nc(-c3ccc(Br)cc3)c2-c2ccc(Br)cc2)cc1` [Example 181, 4-((2-(3,5-bis(trifluoromethyl)phenyl)-4,5-bis(4-bromophenyl)-1H-imidazole-1-yl)methyl)benzimidamide]?
**A.** cytotoxicity at 15 µM (A549 cells): 93 ± 0.59%; cytotoxicity at 15 µM (HeLa cells): 94 ± 1.26%

**Q.** Which cytotoxicity at 15 µM (A549 cells) does the source give for `COc1cccc(-c2nc(-c3cc(C(F)(F)F)cc(C(F)(F)F)c3)n(Cc3ccc(C(=N)N)cc3)c2-c2cccc(OC)c2)c1` [Example 182, 4-((2-(3,5-bis(trifluoromethyl)phenyl)-4,5-bis(3-methoxyphenyl)-1H-imidazole-1-yl)methyl)benzimidamide] here?
**A.** 49 ± 0.82%

**Q.** And the cytotoxicity at 15 µM (HeLa cells)?
**A.** 49 ± 0.48%

**Q.** Which results are given for `Cc1ccc(-c2nc(-c3cc(C(F)(F)F)cc(C(F)(F)F)c3)n(Cc3ccc(C(=N)N)cc3)c2-c2ccc(C)cc2)cc1` [Example 183, 4-((2-(3,5-bis(trifluoromethyl)phenyl)-4,5-ditolyl-1H-imidazole-1-yl)methyl)benzimidamide]?
**A.** cytotoxicity at 15 µM (A549 cells): 56 ± 1.07%; cytotoxicity at 15 µM (HeLa cells): 56 ± 0.38%

**Q.** Which results are given for `N=C(N)c1ccc(Cn2c(-c3cc(C(F)(F)F)cc(C(F)(F)F)c3)nc(-c3ccccc3)c2-c2ccccc2)cc1` [Example 184, 4-((2-(3,5-bis(trifluoromethyl)phenyl)-4,5-diphenyl-1H-imidazole-1-yl)methyl)benzimidamide]?
**A.** cytotoxicity at 15 µM (A549 cells): 79 ± 0.77%; cytotoxicity at 15 µM (HeLa cells): 79 ± 0.46%

**Q.** What does the source list for `COc1ccc(-c2nc(-c3ccc4c(c3)-c3ccccc3C4)n(Cc3ccc(C(=N)N)cc3)c2-c2ccc(OC)cc2)cc1` [Example 185, 4-((2-(9H-fluorene-3-yl)-4,5-bis(4-methoxyphenyl)-1H-imidazole-1-yl)methyl)benzimidamide]?
**A.** cytotoxicity at 15 µM (A549 cells): 42 ± 1.15%; cytotoxicity at 15 µM (HeLa cells): 42 ± 0.38%

**Q.** Which results are given for `COc1ccc(-c2nc(-c3cc(C(F)(F)F)cc(C(F)(F)F)c3)n(Cc3ccc(/C(N)=N/O)cc3)c2-c2ccc(OC)cc2)cc1` [Example 186, 4-((2-(3,5-bis(trifluoromethyl)phenyl)-4,5-bis(4-methoxyphenyl)-1H-imidazole-1-yl)methyl)-N′-hydroxybenzimidamide]?
**A.** cytotoxicity at 15 µM (A549 cells): 5 ± 0.38%; cytotoxicity at 15 µM (HeLa cells): 5 ± 0.27%

**Q.** Which results are given for `COc1ccc(-c2nc(-c3cc(C(F)(F)F)cc(C(F)(F)F)c3)n(CCOCCOCCN)c2-c2ccc(OC)cc2)cc1` [Example 187, 2-(2-(2-(2-(3,5-bis(trifluoromethyl)phenyl)-4,5-bis(4-methoxyphenyl)-1H-imidazole-1-yl)ethoxy)ethoxy)ethaneamine]?
**A.** cytotoxicity at 15 µM (A549 cells): 31 ± 0.29%; cytotoxicity at 15 µM (HeLa cells): 12 ± 0.92%

**Q.** How did the cytotoxicity at 15 µM (A549 cells) turn out when `NCCOCCOCCNC(=O)c1ccc(Cn2c(-c3cc(C(F)(F)F)cc(C(F)(F)F)c3)nc(-c3ccc(F)cc3)c2-c2ccc(F)cc2)cc1` [Example 188, N-(2-(2-(2-aminoethoxy)ethoxy)ethyl)-4-((2-(3,5-bis(trifluoromethyl)phenyl)-4,5-bis(4-fluorophenyl)-1H-imidazole-1-yl)methyl)benzamide] was run?
**A.** 12 ± 0.24%

**Q.** What about the cytotoxicity at 15 µM (HeLa cells) of the same compound?
**A.** 19 ± 0.65%

**Q.** Which results are given for `NCCOCCOCCNC(=O)c1ccc(Cn2c(-c3cc(C(F)(F)F)cc(C(F)(F)F)c3)nc(-c3ccc(Cl)cc3)c2-c2ccc(Cl)cc2)cc1` [Example 189, N-(2-(2-(2-aminoethoxy)ethoxy)ethyl)-4-((2-(3,5-bis(trifluoromethyl)phenyl)-4,5-bis(4-chlorophenyl)-1H-imidazole-1-yl)methyl)benzamide]?
**A.** Apoptosis (%) A549 cells (A549 cells; 12 hours): 81 ± 0.45%; Apoptosis (%) HeLa cells (HeLa cells; 12 hours): 86 ± 0.64%

**Q.** `COc1ccc(-c2nc(-c3cc(C(F)(F)F)cc(C(F)(F)F)c3)n(Cc3ccc(C(=O)NCCOCCN)cc3)c2-c2ccc(OC)cc2)cc1` [Example 190, N-(2-(2-aminoethoxy)ethyl)-4-((2-(3,5-bis(trifluoromethyl)phenyl)-4,5-bis(4-methoxyphenyl)-1H-imidazole-1-yl)methyl)benzamide] was tested. Which cytotoxicity at 15 µM (A549 cells) did it give?
**A.** 72 ± 2.88%

**Q.** And the cytotoxicity at 15 µM (HeLa cells)?
**A.** 87 ± 0.62%

**Q.** How did the cytotoxicity at 15 µM (A549 cells) turn out when `COc1ccc(-c2nc(-c3cc(C(F)(F)F)cc(C(F)(F)F)c3)n(Cc3ccc(C(=O)NCCCCCCN)cc3)c2-c2ccc(OC)cc2)cc1` [Example 191, N-(6-aminohexyl)-4-((2-(3,5-bis(trifluoromethyl)phenyl)-4,5-bis(4-methoxyphenyl)-1H-imidazole-1-yl)methyl)benzamide] was run?
**A.** 78 ± 2.43%

**Q.** What about the cytotoxicity at 15 µM (HeLa cells) of the same compound?
**A.** 94 ± 1.64%

**Q.** `COc1ccc(-c2nc(-c3cc(C(F)(F)F)cc(C(F)(F)F)c3)n(Cc3ccc(C(=O)NCCCCCCCN)cc3)c2-c2ccc(OC)cc2)cc1` [Example 192, N-(7-aminoheptyl)-4-((2-(3,5-bis(trifluoromethyl)phenyl)-4,5-bis(4-methoxyphenyl)-1H-imidazole-1-yl)methyl)benzamide] was tested. Which cytotoxicity at 15 µM (A549 cells) did it give?
**A.** 80 ± 1.78%

**Q.** And the cytotoxicity at 15 µM (HeLa cells)?
**A.** 93 ± 0.56%

**Q.** Which results are given for `COc1ccc(-c2nc(-c3cc(C(F)(F)F)cc(C(F)(F)F)c3)n(Cc3ccc(C(=O)NCCCCCCCCN)cc3)c2-c2ccc(OC)cc2)cc1` [Example 193]?
**A.** cytotoxicity at 15 µM (A549 cells): 77 ± 1.65%; cytotoxicity at 15 µM (HeLa cells): 94 ± 1.02%

**Q.** Which cytotoxicity at 15 µM (A549 cells) does the source give for `COc1ccc(-c2nc(-c3cc(C(F)(F)F)cc(C(F)(F)F)c3)n(Cc3ccc(C(=O)NCCCCCCCCCN)cc3)c2-c2ccc(OC)cc2)cc1` [Example 194] here?
**A.** 80 ± 1.33%

**Q.** What about the cytotoxicity at 15 µM (HeLa cells) of the same compound?
**A.** 84 ± 2.01%

**Q.** Which cytotoxicity at 15 µM (A549 cells) does the source give for `COc1ccc(-c2nc(-c3cc(C(F)(F)F)cc(C(F)(F)F)c3)n(Cc3ccc(C(=O)NCCOCCOCCO)cc3)c2-c2ccc(OC)cc2)cc1` [Example 195, 4-((2-(3,5-bis(trifluoromethyl)phenyl)-4,5-bis(4-methoxyphenyl)-1H-imidazole-1-yl)methyl)-N-(2-(2-(2-hydroxyethoxy)ethoxy)ethyl)benzamide] here?
**A.** 86 ± 1.29%

**Q.** And the cytotoxicity at 15 µM (HeLa cells)?
**A.** 96 ± 0.98%

**Q.** With `COc1ccc(-c2nc(-c3cc(C(F)(F)F)cc(C(F)(F)F)c3)n(Cc3ccc(C(=O)NCCOCCCOCCN)cc3)c2-c2ccc(OC)cc2)cc1` [Example 196, N-(2-(3-(2-aminoethoxy)propoxy)ethyl)-4-((2-(3,5-bis(trifluoromethyl)phenyl)-4,5-bis(4-methoxyphenyl)-1H-imidazole-1-yl)methyl)benzamide] as the compound, how does the cytotoxicity at 15 µM (A549 cells) read?
**A.** 0%

**Q.** And the cytotoxicity at 15 µM (HeLa cells)?
**A.** 0%

**Q.** For `COc1ccc(-c2nc(-c3cc(C(F)(F)F)cc(C(F)(F)F)c3)n(Cc3ccc(C(=O)NCCCCCCCCCCN)cc3)c2-c2ccc(OC)cc2)cc1` [Example 197, N-(10-aminodecyl)-4-((2-(3,5-bis(trifluoromethyl)phenyl)-4,5-bis(4-methoxyphenyl)-1H-imidazole-1-yl)methyl)benzamide], which cytotoxicity at 15 µM (A549 cells) is on record?
**A.** 96 ± 0.54%

**Q.** And the cytotoxicity at 15 µM (HeLa cells)?
**A.** 97 ± 1.22%

**Q.** Which results are given for `COc1ccc(-c2nc(-c3cc(C(F)(F)F)cc(C(F)(F)F)c3)n(Cc3ccc(C(=O)NCCCOCCOCCCN)cc3)c2-c2ccc(OC)cc2)cc1` [Example 198, N-(3-(2-(3-aminopropoxy)ethoxy)propyl)-4-((2-(3,5-bis(trifluoromethyl)phenyl)-4,5-bis(4-methoxyphenyl)-1H-imidazole-1-yl)methyl)benzamide]?
**A.** cytotoxicity at 15 µM (A549 cells): 80 ± 1.43%; cytotoxicity at 15 µM (HeLa cells): 83 ± 1.07%

**Q.** With `COc1ccc(-c2nc(-c3cc(C(F)(F)F)cc(C(F)(F)F)c3)n(Cc3ccc(C(=O)NCCCCCCCCCCCN)cc3)c2-c2ccc(OC)cc2)cc1` [Example 199, N-(11-aminoundecyl)-4-((2-(3,5-bis(trifluoromethyl)phenyl)-4,5-bis(4-methoxyphenyl)-1H-imidazole-1-yl)methyl)benzamide] as the compound, how does the cytotoxicity at 15 µM (A549 cells) read?
**A.** 89 ± 1.63%

**Q.** And the cytotoxicity at 15 µM (HeLa cells)?
**A.** 93 ± 1.72%
